Data: publication PMC2895764 (Journal of molecular biology, 2010)

Tests used:
NIH 3T3 cell = test: Reactivation of K-ras-mediated epigenetic silencing of Fas gene; format: cell-based
G9a-like protein (GLP) = settings: cited from earlier work

SMILES	reactivation (derepression) of Ras-mediated epigenetic silencing of Fas (NIH 3T3 cell)	IC50 against GLP (G9a-like protein (GLP))
Nc1ncn([C@H]2C[C@H](O)[C@@H](CO)O2)c(=O)n1 [5-aza, 5-aza-2′-deoxycytidine]	derepressed	–
COc1cc2nc(N3CCCN(C)CC3)nc(NC3CCN(Cc4ccccc4)CC3)c2cc1OC [BIX-01294]	derepressed	low μM range
